Results published in patent publication US20240307353A1, “JAK1 PATHWAY INHIBITORS FOR THE TREATMENT OF ASTHMA” (Incyte Corporation, priority 2023, published 2024).

Assays:
[1] = system: HDM-induced severe asthma model; experiment: House dust mite (HDM)-induced severe asthma model, lung mechanics after methacholine challenge; format: in vivo, female BALB/c mice
Experimental: (§1) In vivo studies were conducted to test Compound 1 in two models of severe asthma. The first study conducted included an experimental house dust mite (HDM)-induced severe asthma model representative of both Th2/eosinophilic and Th1/Th17/neutrophilic asthma endotypes. The second study conducted included an ovalbumin (OVA) model of acute asthma which more closely represents a Th2/eosinophilic asthma endotype. For each model, fifty-eight female BALB/c mice were randomly and prospectively assigned to six groups, one group of six, one group of twelve, and four groups of ten animals each (see Table 3).
HDM model: On Day 0, animals in Groups 2-6 were sensitized with 50 μg of HDM in an emulsion with 150 μg of complete Freund's adjuvant (CFA) in a 100 μL volume by subcutaneous injection (SC). Animals in Groups 2-6 were challenged on Day 14 with 50 μg HDM in 40 μL saline via intra-nasal instillation (IN). Group 1 served as the naïve control group. On Days 12, 13, 14, and 15, animals in Groups 2-6 were dosed according to Table 3. […] On Day 16, animals underwent methacholine challenge with lung mechanics measurements using a flexi Vent mechanical ventilator.
(§2) . Elasticity of the lung (H) shown in FIGS. 6A-B and airway resistance in small airways and alveoli (G) shown in FIGS. 7A-B were measured using a flexiVent mechanical ventilator following challenge with 25 mg/mL methacholine. Group numbers represent the following treatments: 1) naïve; 2) diseased, vehicle treated; 3) diseased, Compound 1 (1 mg/kg); […]; and 6) diseased, positive control. Data are presented as mean±SEM. n=6-12 per group. Statistical significance between groups was determined by one-way ANOVA with Dunnett's multiple comparisons test used to compare all groups to the vehicle-control group. (*:p<0.05; **:p≤0.01).

[2] = system: OVA model of acute asthma; experiment: Ovalbumin (OVA) model of acute asthma, lung mechanics after methacholine challenge; format: in vivo, female BALB/c mice
Experimental: as §1
OVA model: On Day 0 and Day 7, animals in Groups 2-6 were sensitized with 20 μg of OVA and 1.5 mg Alum in 100 μL volume by intraperitoneal injection (IP). Animals in Groups 2-6 were challenged on Day 13, 14, and 15 with 20 μg OVA in 50 μL PBS via intra-nasal instillation (IN). Group I served as the naïve control group. On Days 12, 13, 14, and 15, animals in Groups 2-6 were dosed according to Table 3. On Day 16, animals underwent methacholine challenge with lung mechanics measurements using a flexiVent mechanical ventilator.
as §2

[3] = system: cytokine production in whole blood stimulated with Dynabeads Human T-Activator CD3/CD28; experiment: Whole blood assay, plasma cytokines after CD3/CD28 stimulation (MSD multiplex); format: cell-based; conditions: 0.3 μM, 1 μM, 19 hours at 37° C., n=6
Experimental: An in vitro study was conducted to investigate the impact of Compound 1 on eosinophil and neutrophil activation and cytokine production that play a role in contributing to eosinophilic and noneosinophilic (neutrophilic) asthma endotypes. Whole blood from healthy volunteers was unstimulated (Unstim) or stimulated with Dynabeads™ Human T-Activator CD3/CD28 in the absence (0) or presence (0.3 μM, 1 μM) of Compound 1 for a total of 19 hours at 37° C. Whole blood was analyzed for cell surface activation marker CD69 gated for eosinophils or neutrophils by flow cytometry (n=12). Plasma was isolated from the whole blood and analyzed for various cytokines using a MSD multiplex platform (n=6). […] Because Compound 1 inhibits the production of Th2/Th1/Th17 cytokines and reduces activation of eosinophils and neutrophils Compound 1 provides an endotype-agnostic means to treat severe asthma.
FIGS. 2-4 depict the effect of Compound 1 on cytokine levels in a whole blood assay. Plasma was isolated from whole blood samples and analyzed for Th2 cytokines (FIGS. 2A-C: IL-4, IL-5, and IL-13 respectively); Th1/Th17 cytokines (FIGS. 3A-C: IFNγ, TNFα, and IL-22 respectively), and other inflammatory cytokines/chemokines (FIGS. 4A-B: CXCL10 and IL-6 respectively). Each symbol represents a different donor. Values from individual donors are shown, along with mean value for each treatment. Data was plotted in GraphPad PRISM v.9.3.1 and analyzed by a paired t test (*:p<0.05; **:p≤0.01; ***:p≤0.001).

[4] = target: human JAK1 (a.a. 837-1142) (Homo sapiens, UniProt P23458); experiment: In vitro JAK kinase assay (HTRF), JAK1; format: biochemical; conditions: 1 mM ATP
Experimental: (§3) The catalytic activity of JAK1, JAK2 or JAK3 was assayed by measuring the phosphorylation of a biotinylated peptide. The phosphorylated peptide was detected by homogenous time resolved fluorescence (HTRF). […] Reactions were carried out at room temperature for 1 hour and then stopped with 20 μL 45 mM EDTA, 300 nM SA-APC, 6 nM Eu-Py20 in assay buffer (Perkin Elmer, Boston, MA). Binding to the Europium labeled antibody took place for 40 minutes and HTRF signal was measured on a Fusion plate reader (Perkin Elmer, Boston, MA).

JAK2 (a.a. 828-1132) = JAK2 (a.a. 828-1132) (Homo sapiens (Human), UniProt O60674); experiment: In vitro JAK kinase assay (HTRF), JAK2 versus JAK1; format: biochemical; conditions: IC50 ratio, 1 mM ATP
Sequence of JAK2 (a.a. 828-1132) (O60674 828-1132): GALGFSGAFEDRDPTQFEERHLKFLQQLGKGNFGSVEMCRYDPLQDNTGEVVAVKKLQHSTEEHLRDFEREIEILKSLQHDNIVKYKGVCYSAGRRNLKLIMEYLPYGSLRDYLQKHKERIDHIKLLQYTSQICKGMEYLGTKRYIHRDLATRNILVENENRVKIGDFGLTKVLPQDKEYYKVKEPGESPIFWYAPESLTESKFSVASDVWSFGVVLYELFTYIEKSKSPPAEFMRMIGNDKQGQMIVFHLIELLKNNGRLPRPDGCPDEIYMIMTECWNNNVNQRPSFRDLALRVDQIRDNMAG
Experimental: as §3

SMILES | IC50 [4] | JAK2/JAK1 (JAK2 (a.a. 828-1132)) | also measured
Cc1n[nH]c(C)c1-c1cnn(C2(CC#N)CN(c3cc(F)c(C(=O)N[C@@H](C)C(F)(F)F)cc3F)C2)c1 [Compound 1, 4-[3-(cyanomethyl)-3-(3′,5′-dimethyl-1H,1′H-4,4′-bipyrazol-1-yl)azetidin-1-yl]-2,5-difluoro-N-[(1S)-2,2,2-trifluoro-1-methylethyl]benzamide] |  |  | elasticity of the lung (H) ([1]; 25 mg/mL methacholine): decreases; resistance in small airways and alveoli (G) ([1]; 25 mg/mL methacholine): decreases; airway measures (Rrs, Ers, G, H), difference between groups ([1]; 10 and 30 mg/kg, Days 12-15, methacholine challenge Day 16): no significant differences; elasticity of the lung (H) ([2]; 10 mg/kg dose): significant reduction; resistance in small airways and alveoli (G) ([2]; 10 mg/kg dose): significant reduction; elasticity of the lung (H) ([2]; 25 mg/mL methacholine): reversed the elevation; resistance in small airways and alveoli (G) ([2]; 25 mg/mL methacholine): reversed the elevation; Th1 and Th17/Th22 cytokines (IFNγ, TNFα, IL-22) [3]: reduced Th1 and Th17/Th22 cytokines induced by T-cell activation in a concentration-dependent manner; inflammatory cytokines/chemokines (CXCL10, IL-6) [3]: reduced inflammatory cytokines/chemokines induced by T cell activation in a concentration-dependent manner; levels of Th2 cytokines (IL-4, IL-5, IL-13) [3]: reduced the levels of Th2 cytokines induced by T-cell activation in a concentration-dependent manner
N#CCC1(n2cc(-c3ncnc4[nH]ccc34)cn2)CN([C@H]2CC[C@@H](Oc3cc(CN4CC[C@H](O)C4)cc(C(F)(F)F)n3)CC2)C1 [Compound 22, {1-(cis-4-{[4-{[(3S)-3-hydroxypyrrolidin-1-yl]methyl}-6-(trifluoromethyl)pyridin-2-yl]oxy}cyclohexyl)-3-[4-(7H-pyrrolo[2,3-d]pyrimidin-4-yl)-1H-pyrazol-1-yl]azetidin-3-yl}acetonitrile] | < 10 nM | >10 | 
C[C@@H](O)CNCc1cc(OC2CCN([C@H]3C[C@](CC#N)(n4cc(-c5ncnc6[nH]ccc56)cn4)C3)CC2)nc(C(F)(F)F)c1 [Compound 24, {trans-3-(4-{[4-({[(2R)-2-hydroxypropyl]amino}methyl)-6-(trifluoromethyl)pyridin-2-yl]oxy}piperidin-1-yl)-1-[4-(7H-pyrrolo[2,3-d]pyrimidin-4-yl)-1H-pyrazol-1-yl]cyclobutyl}acetonitrile] | < 10 nM | >10 | 
N#CC[C@]1(n2cc(-c3ncnc4[nH]ccc34)cn2)C[C@H](N2CCC(Oc3cc(CCO)cc(C(F)(F)F)n3)CC2)C1 [Compound 26, {trans-3-(4-{[4-(2-hydroxyethyl)-6-(trifluoromethyl)pyridin-2-yl]oxy}piperidin-1-yl)-1-[4-(7H-pyrrolo[2,3-d]pyrimidin-4-yl)-1H-pyrazol-1-yl]cyclobutyl}acetonitrile] | < 10 nM | >10 | 

Continued, in another order:

IC50 [4] | JAK2/JAK1 (JAK2 (a.a. 828-1132)) | SMILES | also measured
< 10 nM | >10 | C[C@@H](CO)NCc1cc(OC2CCN([C@H]3C[C@](CC#N)(n4cc(-c5ncnc6[nH]ccc56)cn4)C3)CC2)nc(C(F)(F)F)c1 [Compound 23, {trans-3-(4-{[4-({[(1S)-2-hydroxy-1-methylethyl]amino}methyl)-6-(trifluoromethyl)pyridin-2-yl]oxy}piperidin-1-yl)-1-[4-(7H-pyrrolo[2,3-d]pyrimidin-4-yl)-1H-pyrazol-1-yl]cyclobutyl}acetonitrile] | 
< 10 nM | >10 | C[C@H](O)CNCc1cc(OC2CCN([C@H]3C[C@](CC#N)(n4cc(-c5ncnc6[nH]ccc56)cn4)C3)CC2)nc(C(F)(F)F)c1 [Compound 25, {trans-3-(4-{[4-({[(2S)-2-hydroxypropyl]amino}methyl)-6-(trifluoromethyl)pyridin-2-yl]oxy}piperidin-1-yl)-1-[4-(7H-pyrrolo[2,3-d]pyrimidin-4-yl)-1H-pyrazol-1-yl]cyclobutyl}acetonitrile] | 
